Literature values, collected in US20210319872A1, “DRUG AND DEVICE COMBINATION PRODUCTS WITH IMPROVED SAFETY AND EFFICACY PROFILES” (priority 2016, published 2021).
Like-named read-outs stand apart in the source and are kept apart here.

[1] = refractory oropharyngeal candidiasis

CN1CC[C@]23c4c5ccc(O)c4O[C@H]2C(=O)CC[C@@]3(O)[C@H]1C5 [Oxymorphone, reference compound]
Abdominal pain (in vivo): Gastrointestinal: Abdominal pain (1% to less than 10%), | Bowel obstruction (in vivo): Gastrointestinal: Bowel obstruction (less than 1%) | Constipation (in vivo): Constipation (4.1% to 27.6%), Nausea (2.9% to 33.1%), Vomiting | Fatigue (in vivo): Other: Fatigue (1% to less than 10%), Fever (1% to 14.2%) | Fever (in vivo): Other: Fatigue (1% to less than 10%), Fever (1% to 14.2%) | Headache (in vivo): 17%), Headache (4% to 12%), Somnolence (2% to 19%) | Hypotension (in vivo): Cardiovascular: Hypotension (less than 10%) | Hypoxia (in vivo): < 10%) | Nausea (in vivo): Constipation (4.1% to 27.6%), Nausea (2.9% to 33.1%), Vomiting | Pruritus (in vivo): Dermatologic: Pruritus (less than or equal to 15.2%), Sweating | Serious side effect, Neurologic (in vivo): Neurologic: Coma | Serious side effect, Respiratory (in vivo): Respiratory: Respiratory depression | Somnolence (in vivo): 17%), Headache (4% to 12%), Somnolence (2% to 19%) | Sweating symptom (in vivo): symptom (1% to less than 10%) | Vomiting (in vivo): (less than or equal to 15.6%), Xerostomia (1% to less than 10%) | Xerostomia (in vivo): (less than or equal to 15.6%), Xerostomia (1% to less than 10%)

CCCc1nc2c(C)cc(-c3nc4ccccc4n3C)cc2n1Cc1ccc(-c2ccccc2C(=O)O)cc1 [Telmisartan (Micardis))]
Cough (in vivo): Respiratory: Cough (1.6% to 15.6%), Upper respiratory infection | Serious side effects, listed without incidence or only as rare (in vivo): Musculoskeletal: Rhabdomyolysis (rare) | Upper respiratory infection (in vivo): (7%)

N#Cc1ccc2[nH]cc(CCCCN3CCN(c4ccc5oc(C(N)=O)cc5c4)CC3)c2c1 [Viibryd]
Serotonin syndrome (in vivo): 0.1% | Serious side effect, Other (listed without frequency): Drug withdrawal

CN1CCc2nc(C(=O)N[C@@H]3C[C@@H](C(=O)N(C)C)CC[C@@H]3NC(=O)C(=O)Nc3ccc(Cl)cn3)sc2C1 [Edoxaban (Savaysa)]
Bleeding, Major (in vivo): 3.1%; DVT or pulmonary embolism, 1.4%) | Hemorrhagic cerebral infarction (in vivo): fibrillation, 0.3%), Intracranial hemorrhage (Nonvalvular atrial | Interstitial lung disease (in vivo): 0.2%) | Intracranial hemorrhage (in vivo): fibrillation, 0.5%; DVT or pulmonary embolism, 0.1%) | Liver function tests abnormal (in vivo): fibrillation, 4.8%; DVT or pulmonary embolism, 7.8%) | Rash (in vivo): Dermatologic: Rash (3.6% to 4.2%)

CC(=O)O[C@]1(C(C)=O)CC[C@H]2[C@@H]3CCC4=CC(=O)CCC4=C3[C@@H](c3ccc(N(C)C)cc3)C[C@@]21C [Ella]
Headache (in vivo): Neurologic: Headache (18% to 19%)

Cc1cc2c(s1)Nc1ccccc1N=C2N1CCN(C)CC1 [Olanzapine (Zyprexa)]
Akathisia (in vivo): Neurologic: Akathisia (5% to 27%), Asthenia (2% to 20%), | Asthenia (in vivo): Neurologic: Akathisia (5% to 27%), Asthenia (2% to 20%), | Constipation (in vivo): Gastrointestinal: Constipation (4% to 11%), Xerostomia (Adult, up | Dizziness (in vivo): Dizziness (Adult, 1.6% to 18%; adolescent, 7% to 8%), | Hyperprolactinemia (in vivo): adolescent, up to 14%), Hyperprolactinemia (30% to 61.1%), | Increased appetite (in vivo): Increased appetite (Adult, 3% to 24%; adolescent, 17% to 29%), | Orthostatic hypotension (in vivo): Cardiovascular: Orthostatic hypotension (More than 5%), | Peripheral edema (in vivo): Peripheral edema (3% to 6%) | Personality disorder (in vivo): Psychiatric: Personality disorder (8%) | Serum triglycerides raised (in vivo): Serum triglycerides raised (20.8% to 40%), Weight increased, 7% | Somnolence (in vivo): Somnolence (IM, 6%; oral, 20% to 52%), Tremor (1% to 23%) | Tremor (in vivo): Somnolence (IM, 6%; oral, 20% to 52%), Tremor (1% to 23%) | Somnolence (in vivo, po): Somnolence (IM, 6%; oral, 20% to 52%), Tremor (1% to 23%)

CCOC(=O)[C@H](CCc1ccccc1)N[C@@H](C)C(=O)N1CCC[C@H]1C(=O)O [Enalapril (Vasotec)]
Angioedema (in vivo): Other: Angioedema (0.1% to 1%) | Dizziness (in vivo): Neurologic: Dizziness (4.3% to 7.9%) | Fatigue (in vivo): Other: Fatigue (3%) | Hyperkalemia (in vivo): Endocrine metabolic: Hyperkalemia (1% to 3.8%) | Hypotension (in vivo): Cardiovascular: Hypotension (0.9% to 6.7%) | Serum creatinine raised (in vivo): raised (0.2% (hypertension) to 20% (hypertension with renal artery

CCCC(C)C1(CC)C(=O)NC(=O)NC1=O (stereo not drawn) [Nembutal (pentobarbital)]
Agitation (in vivo): Psychiatric: Agitation (less than 1%) | Apnea (in vivo): Respiratory: Apnea (less than 1%), Hypoventilation (less than 1%) | Confusion (in vivo): Neurologic: Confusion (less than 1%), Dizziness (less than 1%), | Dizziness (in vivo): Neurologic: Confusion (less than 1%), Dizziness (less than 1%), | Hypoventilation (in vivo): Respiratory: Apnea (less than 1%), Hypoventilation (less than 1%) | Injury of liver (in vivo): Hepatic: Injury of liver (less than 1%) | Megaloblastic anemia (in vivo): Hematologic: Megaloblastic anemia (less than 1%) | Somnolence (in vivo): Somnolence (1% to 3%) | Stevens-Johnson syndrome (in vivo): Dermatologic: Stevens-Johnson syndrome (less than 1%)

CC[C@@H]([C@H](C)O)n1ncn(-c2ccc(N3CCN(c4ccc(OC[C@@H]5CO[C@@](Cn6cncn6)(c6ccc(F)cc6F)C5)cc4)CC3)cc2)c1=O [Noxafil]
Cholestasis (frequency in words): Hepatic: Cholestasis (rare), Liver failure (rare) | Liver failure (frequency in words): Hepatic: Cholestasis (rare), Liver failure (rare) | Torsades de pointes (in vivo): pointes (less than 5%) | Diarrhea (oropharyngeal candidiasis): oropharyngeal candidiasis, 10%; refractory oropharyngeal | Fever (oropharyngeal candidiasis): 6% | Headache (oropharyngeal candidiasis): 8% | Nausea (oropharyngeal candidiasis): oropharyngeal candidiasis, 9%; refractory oropharyngeal | Vomiting (oropharyngeal candidiasis): oropharyngeal candidiasis, 7%; refractory oropharyngeal | Diarrhea [1]: 13% | Fever [1]: 34% | Headache [1]: 20% | Nausea [1]: 29% | Vomiting [1]: candidiasis, 28%)

Cc1ccc(-c2nc3ccc(C)cn3c2CC(=O)N(C)C)cc1 [Ambien (zolpidem)]
Allergic reaction (in vivo): Immunologic: Allergic reaction (4%) | Anaphylaxis (in vivo): Immunologic: Anaphylaxis (rare) | Angioedema (in vivo): Other: Angioedema (rare) | Chest pain (in vivo): Cardiovascular: Chest pain (1%), Tachycardia (0.1% to 1%) | Diarrhea (in vivo): Gastrointestinal: Diarrhea (1% to 3%), Nausea (1% to 7%) | Dizziness (in vivo): Neurologic: Dizziness (1% to 23.5%), Drugged state (3%), | Drugged state (in vivo): Neurologic: Dizziness (1% to 23.5%), Drugged state (3%), | Fatigue (in vivo): Other: Fatigue (0.1% to 3%) | Headache (in vivo): Headache (1% to 19%), Somnolence (2% to 15%) | Nausea (in vivo): Gastrointestinal: Diarrhea (1% to 3%), Nausea (1% to 7%) | Serious side effect, Neurologic (in vivo): Neurologic: Hepatic encephalopathy | Somnolence (in vivo): Headache (1% to 19%), Somnolence (2% to 15%) | Tachycardia (in vivo): Cardiovascular: Chest pain (1%), Tachycardia (0.1% to 1%) | Visual disturbance (in vivo): Ophthalmic: Visual disturbance (3%)

COC(=O)C1=C(C)NC(C)=C(C(=O)OCC(C)C)C1c1ccccc1[N+](=O)[O-] (stereo not drawn) [Nisoldipine (Sular)]
Dizziness (in vivo): Neurologic: Dizziness (5%), Headache (22%) | Headache (in vivo): Neurologic: Dizziness (5%), Headache (22%) | Palpitations (in vivo): Cardiovascular: Palpitations (3%), Peripheral edema (22%), | Peripheral edema (in vivo): Cardiovascular: Palpitations (3%), Peripheral edema (22%), | Pharyngitis (in vivo): Respiratory: Pharyngitis (5%), Sinusitis | Serious side effects, listed without incidence or only as rare (in vivo): Cardiovascular: Myocardial infarction | Vasodilatation (in vivo): Vasodilatation (4%)

CC(C)(C)NC[C@H](O)COc1nsnc1N1CCOCC1 [Timolol (Blocadren)]
Burning sensation in eye (in vivo): sensation in eye (Ophthalmic, 12.5% to 20%), Dry eyes | Cardiac dysrhythmia (in vivo): Cardiovascular: Cardiac dysrhythmia (1%), Myocardial infarction | Confusion (in vivo): Neurologic: Confusion (13%), Dizziness (2.3% to 6%, oral), | Depression (in vivo): Psychiatric: Depression (9.2%, ophthalmic), Hallucinations (11%), | Hallucinations (in vivo): Psychiatric: Depression (9.2%, ophthalmic), Hallucinations (11%), | Headache (in vivo): Headache (1.7%, oral; 1% to 5%, ophthalmic) | Psychotic disorder (in vivo): Psychotic disorder (3%) | Serious side effects, listed without incidence or only as rare (in vivo): Cardiovascular: Cardiac dysrhythmia (1%), Myocardial infarction | Bradyarrhythmia (in vivo, po): Cardiovascular: Angina, Bradyarrhythmia (5% to 9.1%, oral), | Bronchospasm (in vivo, po): Respiratory: Bronchospasm (0.6%, oral) | Dizziness (in vivo, po): Neurologic: Confusion (13%), Dizziness (2.3% to 6%, oral), | Dyspnea (in vivo, po): Respiratory: Cough, Dyspnea (1.7%, oral) | Fatigue (in vivo, po): Other: Fatigue (3.4% to 5%, oral), Infectious disease | Headache (in vivo, po): Headache (1.7%, oral; 1% to 5%, ophthalmic) | Heart failure (in vivo, po): Heart failure (8%, oral), Hypotension

C=CCC1(C(C)CCC)C(=O)NC(=O)NC1=O (stereo not drawn) [Seconal (secobarbital)]
Complex mannerisms - behavior (in vivo): Psychiatric: Complex mannerisms - behavior (Less than 1%.) | Liver damage (in vivo): Hepatic: Liver damage (less than 1%) | Megaloblastic anemia, With prolonged use (in vivo): < 1%) | Serious side effect, Other (in vivo): Other: Drug dependence, Withdrawal sign or symptom | Somnolence (in vivo): Neurologic: Somnolence (1% to 3%)

CC(C)NCC(O)c1ccc(NS(C)(=O)=O)cc1 (stereo not drawn) [Sotalol (Betapace)]
Bradyarrhythmia (in vivo): 12.3% to 16%; pediatric, 4%), Cardiac dysrhythmia (5%), | Cardiac dysrhythmia (in vivo): 12.3% to 16%; pediatric, 4%), Cardiac dysrhythmia (5%), | Cerebrovascular accident (in vivo): Neurologic: Cerebrovascular accident (1%) | Chest pain (in vivo): Cardiovascular: Chest pain (Adult, 16%; pediatric, 4%), | Congestive heart failure (in vivo): Congestive heart failure (1.2% to 3.3%), Heart failure (5%), | Disturbance of consciousness (in vivo): Neurologic: Disturbance of consciousness (4%), Dizziness (13.1% | Dizziness (in vivo): Neurologic: Disturbance of consciousness (4%), Dizziness (13.1% | Dyspnea (in vivo): Respiratory: Dyspnea (9.2% to 21%) | Fatigue (in vivo): Other: Fatigue (18.9% to 20%) | Heart failure (in vivo): Congestive heart failure (1.2% to 3.3%), Heart failure (5%), | Lightheadedness (in vivo): Lightheadedness (12%) | Rash (in vivo): Dermatologic: Rash (5%) | Torsades de pointes (in vivo): Prolonged QT interval, Torsades de pointes (0.5% to 4%)
